Results published in ChEMBL document CHEMBL1201862, “PubChem BioAssay data set” (2004).
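Step 1: Grow cells in 96-well plates. Step 2: Expose to compound for 48 hours at 5 concentrations. Step 3: Interpolate endpoints linearly; if unreached, use highest concentration. GI50 marks 50% less growth.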 Activity calls are given as the source filed them. Rule as the data show it: active = GI50 up to about 1.1 µM and inactive = higher.

Assays:
Experiment in all cases: inhibition of tumour cell growth, NCI panel, 48 h
A549 = system: A549
UACC-257 = system: UACC-257
SNB-75 = system: SNB-75
CAKI-1 = system: CAKI-1
COLO 205 = system: COLO 205
SW-620 = system: SW-620
A498 = system: A498
EKVX = system: EKVX
NCI-H460 = system: NCI-H460
SK-MEL-5 = system: SK-MEL-5
NCI-H23 = system: NCI-H23
MOLT-4 = system: MOLT-4
K562 = system: K562
U-251 = system: U-251
DLD-1 = system: DLD-1
SR = system: SR
ACHN = system: ACHN
SK-MEL-2 = system: SK-MEL-2
MCF7 = system: MCF7
MDA-N = system: MDA-N

SMILES | GI50 (A549) | GI50 (UACC-257) | GI50 (SNB-75) | GI50 (CAKI-1) | GI50 (COLO 205) | GI50 (SW-620) | GI50 (A498) | GI50 (EKVX) | GI50 (NCI-H460) | GI50 (SK-MEL-5) | GI50 (NCI-H23) | GI50 (MOLT-4) | GI50 (K562) | GI50 (U-251) | GI50 (DLD-1) | GI50 (SR) | GI50 (ACHN) | GI50 (SK-MEL-2) | GI50 (MCF7) | GI50 (MDA-N)
N#Cc1cnsc1 | > 100 µM (inactive) | > 100 µM (inactive) | > 100 µM (inactive) | > 100 µM (inactive) | > 100 µM (inactive) | > 100 µM (inactive) | > 100 µM (inactive) | > 100 µM (inactive) | > 100 µM (inactive) | > 100 µM (inactive) | > 100 µM (inactive) | > 100 µM (inactive) | > 100 µM (inactive) | > 100 µM (inactive) | > 100 µM (inactive) | > 100 µM (inactive) | > 100 µM (inactive) | > 100 µM (inactive) | – | –
O=C(CCBr)N1CCN(C(=O)CCBr)CC1 [PIPOBROMAN] | 43.9 µM (inactive) | 91 µM (inactive) | 71.4 µM (inactive) | 47.9 µM (inactive) | 92.3 µM (inactive) | 89.9 µM (inactive) | 80.7 µM (inactive) | 85.7 µM (inactive) | 11.9 µM (inactive) | 64.1 µM (inactive) | 56.4 µM (inactive) | 13.4 µM (inactive) | 131 µM (inactive) | 55 µM (inactive) | 90.2 µM (inactive) | 8.04 µM (inactive) | 29 µM (inactive) | 107 µM (inactive) | 52.4 µM (inactive) | 89.9 µM (inactive)
O=C(c1ccc2c3c(ccc(C(=O)C(F)(F)F)c13)CC2)C(F)(F)F | 57.1 µM (inactive) | 42.3 µM (inactive) | 29.4 µM (inactive) | > 100 µM (inactive) | 21.5 µM (inactive) | > 100 µM (inactive) | 47.9 µM (inactive) | 81.7 µM (inactive) | 69.8 µM (inactive) | – | 43.3 µM (inactive) | 61.4 µM (inactive) | – | 63.2 µM (inactive) | 88.1 µM (inactive) | 60.1 µM (inactive) | 58.9 µM (inactive) | 97.5 µM (inactive) | – | –
O=C1CCC(c2nc3cc(Cl)ccc3o2)C(=O)N1 (stereo unspecified) | > 100 µM (inactive) | > 100 µM (inactive) | 64.7 µM (inactive) | > 100 µM (inactive) | > 100 µM (inactive) | > 100 µM (inactive) | > 100 µM (inactive) | > 100 µM (inactive) | > 100 µM (inactive) | > 100 µM (inactive) | > 100 µM (inactive) | > 100 µM (inactive) | > 100 µM (inactive) | > 100 µM (inactive) | > 100 µM (inactive) | > 100 µM (inactive) | > 100 µM (inactive) | > 100 µM (inactive) | – | –
CCCCCCCCSC(SCCCCCCCC)=C1C(=O)N(c2ccccc2)N=C1C | 26.8 µM (inactive) | 30.5 µM (inactive) | 41.8 µM (inactive) | 26.9 µM (inactive) | 24.7 µM (inactive) | 14.5 µM (inactive) | 24.3 µM (inactive) | 59.3 µM (inactive) | 40.3 µM (inactive) | 47 µM (inactive) | 32.8 µM (inactive) | 28.4 µM (inactive) | 28.7 µM (inactive) | 17.5 µM (inactive) | 21.4 µM (inactive) | 14.9 µM (inactive) | 35.2 µM (inactive) | 58.6 µM (inactive) | – | –
COC(=O)C(C(=O)C(=O)Nc1c(Cl)cc([N+](=O)[O-])cc1Cl)c1csc(-n2nc(C3=CCCCC3)cc2-c2ccccc2)n1 (stereo unspecified) | 64.7 µM (inactive) | 46.6 µM (inactive) | 30.7 µM (inactive) | 46.9 µM (inactive) | 32.1 µM (inactive) | 71 µM (inactive) | 32.9 µM (inactive) | 8.47 µM (inactive) | 82.8 µM (inactive) | – | – | 52.2 µM (inactive) | 48.5 µM (inactive) | > 100 µM (inactive) | 28.8 µM (inactive) | 22.5 µM (inactive) | 35.5 µM (inactive) | > 100 µM (inactive) | – | –
COC(=O)/C(=C1\OC(=O)C(c2ccc(Cl)cc2)=C1O)c1ccc(Cl)cc1 | 24.8 µM (inactive) | 16.5 µM (inactive) | 22.8 µM (inactive) | 23 µM (inactive) | 18.9 µM (inactive) | 35.7 µM (inactive) | 16.9 µM (inactive) | 23.7 µM (inactive) | 26.1 µM (inactive) | – | 16 µM (inactive) | 22.5 µM (inactive) | 27 µM (inactive) | 24.3 µM (inactive) | 29.4 µM (inactive) | 25.8 µM (inactive) | 23.2 µM (inactive) | – | – | –
CC(=O)OCC1OC(n2cnc3c(I)nc(I)nc32)C(OC(C)=O)C1OC(C)=O (stereo unspecified) | 17.7 µM (inactive) | 14.1 µM (inactive) | 15.1 µM (inactive) | 2.02 µM (inactive) | – | 13.8 µM (inactive) | 22.2 µM (inactive) | 18.5 µM (inactive) | 17.7 µM (inactive) | 13.3 µM (inactive) | 4.66 µM (inactive) | 8.13 µM (inactive) | 3.69 µM (inactive) | 10.4 µM (inactive) | 10.8 µM (inactive) | 3.13 µM (inactive) | 10 µM (inactive) | 17.1 µM (inactive) | – | –
N#CNC(=N)NC(=O)/C=C/C=C/c1ccc(Cl)cc1 | > 100 µM (inactive) | > 100 µM (inactive) | 24.2 µM (inactive) | > 100 µM (inactive) | > 100 µM (inactive) | > 100 µM (inactive) | > 100 µM (inactive) | – | > 100 µM (inactive) | 33.3 µM (inactive) | > 100 µM (inactive) | > 100 µM (inactive) | > 100 µM (inactive) | > 100 µM (inactive) | > 100 µM (inactive) | 72.9 µM (inactive) | > 100 µM (inactive) | > 100 µM (inactive) | – | –
COC(=O)C1CCC2(CC1)NC(=O)NC2=O (stereo unspecified) | > 100 µM (inactive) | > 100 µM (inactive) | > 100 µM (inactive) | > 100 µM (inactive) | > 100 µM (inactive) | > 100 µM (inactive) | > 100 µM (inactive) | > 100 µM (inactive) | > 100 µM (inactive) | > 100 µM (inactive) | > 100 µM (inactive) | > 100 µM (inactive) | > 100 µM (inactive) | > 100 µM (inactive) | > 100 µM (inactive) | > 100 µM (inactive) | > 100 µM (inactive) | > 100 µM (inactive) | – | –
CN(C)CCN(C)C(=O)c1cccc2cccc(C(=O)O)c12 | > 100 µM (inactive) | > 100 µM (inactive) | > 100 µM (inactive) | – | > 100 µM (inactive) | > 100 µM (inactive) | > 100 µM (inactive) | > 100 µM (inactive) | > 100 µM (inactive) | > 100 µM (inactive) | > 100 µM (inactive) | > 100 µM (inactive) | > 100 µM (inactive) | > 100 µM (inactive) | > 100 µM (inactive) | > 100 µM (inactive) | > 100 µM (inactive) | 0.723 µM (active) | – | –
CN(C)CCNc1ccc2nnn3c4ccc(O)cc4c(=O)c1c23 | 0.598 µM (active) | 9.71 µM (inactive) | 9.57 µM (inactive) | 3.13 µM (inactive) | 3.39 µM (inactive) | 1.09 µM (active) | 3.71 µM (inactive) | 3.13 µM (inactive) | 0.498 µM (active) | 2.53 µM (inactive) | 3.75 µM (inactive) | 0.168 µM (active) | 1.61 µM (inactive) | 2.1 µM (inactive) | 3.4 µM (inactive) | 0.18 µM (active) | 2.76 µM (inactive) | 9.79 µM (inactive) | 2.44 µM (inactive) | 1.86 µM (inactive)
